We go through 78 compounds from article doi:10.1101/2021.10.07.463234v2 (biorxiv, 2021).

SMILES strings stand for the structures. Counter-ions that a name gives are not always drawn.

The target in one assay is SARS-CoV-2 Mac1 (Severe acute respiratory syndrome coronavirus 2, UniProt P0DTD1). The assay is described as follows: biochemical. As to conditions: 100 µM; inhibitor.
What is called %inhibition is the drop in the measured response relative to a control, in per cent. With `CC(C(=O)O)c1ccc(CC2CCCC2=O)cc1` (stereo not drawn) [Loxoprofen Sodium], the “%inhibition” value is listed as 0%.
For the compound `CC(C(=O)O)c1ccc(CC2CCCC2=O)cc1` (stereo not drawn) [Loxoprofen], the “%inhibition” value amounted to 5.364%.
In the case of `NCc1ccc(S(N)(=O)=O)cc1` [Mafenide Acetate], the “%inhibition” value turned out to be 0%.
The same measure, in the same setting: the figure for `NCc1ccc(S(N)(=O)=O)cc1` [Mafenide hydrochloride] is 8.456%.
In the case of `Cc1cccc(C)c1NC(=O)C1CCCCN1C` (stereo not drawn) [Mepivacaine HCl], the “%inhibition” value was found to be 2.617%.
Still for that read-out and setting: the figure for `Cc1cccc(C)c1NC(=O)C1CCCCN1C` (stereo not drawn) [Mepivacaine] is 0%; for `C[C@@H](O)[C@H]1C(=O)N2C(C(=O)O)=C(S[C@@H]3CN[C@H](C(=O)N(C)C)C3)[C@H](C)[C@H]12` [Meropenem Trihydrate] it is 21.42%.
On the same count and under the same terms, the figure for `C[C@@H](O)[C@H]1C(=O)N2C(C(=O)O)=C(S[C@@H]3CN[C@H](C(=O)N(C)C)C3)[C@H](C)[C@H]12` [Meropenem] is 0%; for `CN(Cc1cnc2nc(N)nc(N)c2n1)c1ccc(C(=O)N[C@@H](CCC(=O)O)C(=O)O)cc1` [Methotrexate disodium] it is 0%.
Still for that read-out and setting: under `CN(Cc1cnc2nc(N)nc(N)c2n1)c1ccc(C(=O)N[C@@H](CCC(=O)O)C(=O)O)cc1` [Methotrexate] stands 59.68%; under `COCCc1ccc(OCC(O)CNC(C)C)cc1` (stereo not drawn) [Metoprolol Tartrate], 45.82%.
For the compound `COCCc1ccc(OCC(O)CNC(C)C)cc1` (stereo not drawn) [Metoprolol succinate], the “%inhibition” value was 1.216%.
With `COCCc1ccc(OCC(O)CNC(C)C)cc1` (stereo not drawn) [Metoprolol], the “%inhibition” value is listed as 3.241%.

Staying with this assay, now noted: read-out: %inhibition.
A word on the inhibition: it is the percentage by which the read-out fell short of the control. For `CC[C@H](C)C(=O)O[C@H]1C[C@@H](C)C=C2C=C[C@H](C)[C@H](CC[C@@H]3C[C@@H](O)CC(=O)O3)[C@H]21` [Lovastatin], the inhibition at 100 µM stood at 0%.
Still for that read-out and setting: the figure for `CN1CCN(C2=Nc3ccccc3Oc3ccc(Cl)cc32)CC1` [Loxapine Succinate] is 30.4%; for `CCCCC(F)(F)[C@@]1(O)CC[C@H]2[C@@H](CC(=O)[C@@H]2CCCCCCC(=O)O)O1` [Lubiprostone] it is 13.8%; for `N#C/C(=C1/SC[C@@H](c2ccc(Cl)cc2Cl)S1)n1ccnc1` [Luliconazole] it is 24.1%.
Same read-out and setting: under `CCCCN(CCCC)CC(O)c1cc(Cl)cc2c1-c1ccc(Cl)cc1/C2=C/c1ccc(Cl)cc1` (stereo not drawn) [Lumefantrine] stands 0%.
`CCCNS(=O)(=O)Nc1ncnc(OCCOc2ncc(Br)cn2)c1-c1ccc(Br)cc1` [Macitentan]: the inhibition at 100 µM stood at 10%.
Same read-out and setting: under `CC(C)OC(=O)C(C(=O)OC(C)C)=C1SC=CS1` [Malotilate] stands 0.00863%; under `Cc1occc(=O)c1O` [Maltol], 15.5%; under `COC(=O)C1=C(C)NC(C)=C(C(=O)OCCN2CCN(C(c3ccccc3)c3ccccc3)CC2)C1c1cccc([N+](=O)[O-])c1` (stereo not drawn) [Manidipine 2HCl], 0%.
The same measure, in the same setting: under `Cc1nnc(C(C)C)n1[C@@H]1C[C@H]2CC[C@@H](C1)N2CC[C@H](NC(=O)C1CCC(F)(F)CC1)c1ccccc1` [Maraviroc] stands 24.2%.
Same read-out and setting: under `CN1CCN(c2c(F)cc3c(=O)c(C(=O)O)cn4c3c2OCN4C)CC1` [Marbofloxacin] stands 18.3%; under `CNC(=O)[C@@H](NC(=O)[C@H](CC(C)C)[C@H](O)C(=O)NO)C(C)(C)C` [Marimastat (BB-2516)], 3.16%.
Consider `Cc1ccc(NC(=O)c2ccc(CN3CCN(C)CC3)cc2)cc1Nc1nc(-c2cccnc2)cs1` [Masitinib (AB1010)], for which the inhibition at 100 µM came to 7.66%.
Same read-out and setting: under `COC(=O)Nc1nc2cc(C(=O)c3ccccc3)ccc2[nH]1` [Mebendazole] stands 0%.
Still for that read-out and setting: the figure for `CCN(CCCCOC(=O)c1ccc(OC)c(OC)c1)C(C)Cc1ccc(OC)cc1` (stereo not drawn) [Mebeverine Hydrochloride] is 5.64%; for `CCOC(=O)c1c(C)n(C)c2ccc(O)cc12` [Mecarbinate] it is 0%.
On the same count and under the same terms, the figure for `Cc1cccc(CN2CCN(C(c3ccccc3)c3ccc(Cl)cc3)CC2)c1` (stereo not drawn) [Meclizine 2HCl] is 9.09%.
As to `Cc1ccc(Cl)c(Nc2ccccc2C(=O)O)c1Cl` [Meclofenamate Sodium], the inhibition at 100 µM amounted to 5.23%.
In the case of `CN(C)CCOC(=O)COc1ccc(Cl)cc1` [Meclofenoxate (Centrophenoxine) HCl], the inhibition at 100 µM is 16.9%.
Still for that read-out and setting: the figure for `Cc1cccc(C(C)c2c[nH]cn2)c1C` (stereo not drawn) [Medetomidine HCl] is 21.9%.
Regarding `CC(=O)O[C@]1(C(C)=O)CC[C@H]2[C@@H]3C[C@H](C)C4=CC(=O)CC[C@]4(C)[C@H]3CC[C@@]21C` [Medroxyprogesterone acetate], the inhibition at 100 µM worked out at 26.1%.
Still for that read-out and setting: the figure for `Cc1cccc(Nc2ccccc2C(=O)O)c1C` [Mefenamic Acid] is 21%; for `O[C@@H](c1cc(C(F)(F)F)nc2c(C(F)(F)F)cccc12)[C@H]1CCCCN1` [Mefloquine HCl] it is 0%.
As to `CC(=O)O[C@]1(C(C)=O)CC[C@H]2[C@@H]3C=C(C)C4=CC(=O)CC[C@]4(C)[C@H]3CC[C@@]21C` [Megestrol Acetate], the inhibition at 100 µM came out at 23.5%.
Take `CNC[C@H](O)[C@@H](O)[C@H](O)[C@H](O)CO` [Meglumine]: the inhibition at 100 µM came out at 15.6%.
Same read-out and setting: under `COc1ccc2[nH]cc(CCNC(C)=O)c2c1` [Melatonin] stands 9.33%.
Still for that read-out and setting: under `Cc1cnc(NC(=O)C2=C(O)c3ccccc3S(=O)(=O)N2C)s1` [Meloxicam] stands 41.6%; under `N[C@@H](Cc1ccc(N(CCCl)CCCl)cc1)C(=O)O` [Melphalan], 3.44%.
Regarding `CC12CC3CC(C)(C1)CC(N)(C3)C2` [Memantine HCl], the inhibition at 100 µM was 0%.
Turning to `CC1=CC(=O)c2ccccc2C1=O` [Menadione], the inhibition at 100 µM was 1.18%.
The same measure, in the same setting: under `C[N+]1(C)CCCC(OC(=O)C(O)(c2ccccc2)c2ccccc2)C1` (stereo not drawn) [Mepenzolate Bromide] stands 0%; under `Cc1ccccc1OCC(O)CO` (stereo not drawn) [Mephenesin], 7.81%.
Still for that read-out and setting: the figure for `[O-][n+]1cccc(CO)c1` [Mepiroxol] is 12.3%; for `C[C@H]1C[C@H]2[C@@H]3CCC4=CC(=O)C=C[C@]4(C)[C@H]3C(=O)C[C@]2(C)[C@@]1(O)C(=O)CO` [Meprednisone] it is 8.14%; for `CCC1(c2cccc(O)c2)CCCCN(C)C1` (stereo not drawn) [Meptazinol HCl] it is 0%.
The same measure, in the same setting: under `COc1ccc(O)cc1` [Mequinol] stands 0%; under `S=c1[nH]cnc2nc[nH]c12` [Mercaptopurine (6-MP)], 19.8%; under `Nc1ccc(O)c(C(=O)O)c1` [Mesalamine], 0%.
Regarding `O=S(=O)(O)CCS` [Mesna], the inhibition at 100 µM was found to be 24.6%.
For `CN1CCCCC1CCN1c2ccccc2Sc2ccc([S+](C)[O-])cc21` (stereo not drawn) [Mesoridazine Besylate], the inhibition at 100 µM amounted to 6.43%.
Still for that read-out and setting: under `C#C[C@]1(O)CC[C@H]2[C@@H]3CCc4cc(OC)ccc4[C@H]3CC[C@@]21C` [Mestranol] stands 0%; under `CC(C)NCC(O)c1cc(O)cc(O)c1` (stereo not drawn) [Metaproterenol Sulfate], 2.56%.
On the same count and under the same terms, under `C[C@H](N)[C@H](O)c1cccc(O)c1` [Metaraminol Bitartrate] stands 8.05%; under `Cc1cc(C)cc(OCC2CNC(=O)O2)c1` (stereo not drawn) [Metaxalone], 0%; under `CN(C)C(=N)NC(=N)N` [Metformin HCl], 32.6%.
The same measure, in the same setting: the figure for `CC(=O)OC(C)C[N+](C)(C)C` (stereo not drawn) [Methacholine chloride] is 8.52%.
For the compound `C=C1c2cccc(O)c2C(=O)C2=C(O)[C@]3(O)C(=O)C(C(N)=O)=C(O)[C@@H](N(C)C)[C@@H]3[C@@H](O)[C@H]12` [Methacycline HCl], the inhibition at 100 µM turned out to be 0%.
Regarding `CC(=O)/N=c1/sc(S(N)(=O)=O)nn1C` [Methazolamide], the inhibition at 100 µM is 0%.
The same measure, in the same setting: under `C1N2CN3CN1CN(C2)C3` [Methenamine] stands 1.76%; under `Cn1ccnc1S` [Methimazole], 0%.
Consider `COc1ccccc1OCC(O)COC(N)=O` (stereo not drawn) [Methocarbamol], for which the inhibition at 100 µM worked out at 36.3%.
Consider `COc1c2occc2cc2ccc(=O)oc12` [Methoxsalen], for which the inhibition at 100 µM came out at 14.7%.
Same read-out and setting: the figure for `CNC(C)Cc1ccccc1OC` (stereo not drawn) [Methoxyphenamine Hydrochloride] is 0%.
On to `C[N+]1(C)[C@@H]2C[C@@H](OC(=O)[C@H](CO)c3ccccc3)C[C@H]1[C@@H]1O[C@@H]12` [Methscopolamine], for which the inhibition at 100 µM is 0%.
Same read-out and setting: the figure for `CN1C(CCl)Nc2cc(Cl)c(S(N)(=O)=O)cc2S1(=O)=O` (stereo not drawn) [Methyclothiazide] is 0%; for `COC(=O)CCC(=O)CN` [Methyl Aminolevulinate Hydrochloride] it is 3.98%; for `COC(=O)c1ccccc1O` [Methyl salicylate] it is 7.14%.
The same measure, in the same setting: the figure for `CC[N+](C)(CC)CCOC(=O)C(O)(c1ccccc1)c1ccccc1` [Methylbenactyzine Bromide] is 9.38%.
Same read-out and setting: under `C[C@](N)(Cc1ccc(O)c(O)c1)C(=O)O` [Methyldopa] stands 8.62%; under `CN(C)c1ccc2nc3ccc(=[N+](C)C)cc-3sc2c1` [Methylene Blue], 43.3%.
Consider `C[C@H]1C[C@@H]2[C@H]([C@@H](O)C[C@@]3(C)[C@H]2CC[C@]3(O)C(=O)CO)[C@@]2(C)C=CC(=O)C=C12` [Methylprednisolone], for which the inhibition at 100 µM came out at 39.6%.
Still for that read-out and setting: under `Cc1cc(=O)[nH]c(=S)[nH]1` [Methylthiouracil] stands 0%; under `Cc1cc2c(cc1S(N)(=O)=O)S(=O)(=O)CCC2` [Meticrane], 0%; under `CCN(CC)CCNC(=O)c1cc(Cl)c(N)cc1OC` [Metoclopramide HCl], 0%.
Same read-out and setting: the figure for `Cc1ccccc1N1C(=O)c2cc(S(N)(=O)=O)c(Cl)cc2NC1C` (stereo not drawn) [Metolazone] is 0%.
